In assay [1] the test system is PBMCs from DLBCL patients. In words: γ-IFN release ELISPOT, PBMCs of DLBCL patients after short-term culture with peptides. In kind it is cell-based, human. Details: γ-IFN response to peptides: unit not given here. The following applies: for γ-IFN response to peptides: triplicate ELISPOT.
The test system of assay [2] is PBMCs from healthy donors. In words: γ-IFN release ELISPOT, PBMCs of healthy donors after short-term culture with peptides. In kind it is cell-based, human. Conditions: triplicate ELISPOT, ± SD.
The mark [3] stands for this setting: Patient 1, De novo DLBCL, DRB1-0102, group Significant response, ± SD.
The mark [4] stands for this setting: Patient 2, De novo DLBCL, DRB1-0101, group Significant response, ± SD.
The mark [5] stands for this setting: Patient 3, De novo DLBCL, DRB1-0301, group Significant response, ± SD.
The mark [6] stands for this setting: Patient 4, De novo DLBCL, DRB1-0102, group Significant response, ± SD.
Where [7] appears, read: Patient 8, De novo DLBCL, DRB1-1501, group Significant response, ± SD.
The mark [8] stands for this setting: Patient 9, De novo DLBCL, DRB1-0301, group Significant response, ± SD.
Where [9] appears, read: Patient 10, De novo DLBCL, DRB1-0101, group No significant response, ± SD.
Where [10] appears, read: Patient 12, De novo DLBCL, DRB1-0401, group Significant response, ± SD.
Setting [11] is: Patient 15, De novo DLBCL, DRB1-1301, group No significant response, ± SD.
Where [12] appears, read: Patient 17, De novo DLBCL, DRB1-0301, group No significant response, ± SD.
[13] abbreviates: Patient 18, De novo DLBCL, DRB1-0401, group No significant response, ± SD.
Where [14] appears, read: Patient 19, De novo DLBCL, DRB1-1104, group No significant response, ± SD.
Where [15] appears, read: Patient 20, De novo DLBCL, DRB1-1303, group No significant response, ± SD.
Setting [16] is: Patient 21, De novo DLBCL, DRB1-0301, group No significant response, ± SD.
[17] abbreviates: Patient 24, De novo DLBCL, DRB1-1301, group Significant response, ± SD.
[18] abbreviates: Patient 28, Trans DLBCL, DRB1-0701, group No significant response, ± SD.
The mark [19] stands for this setting: Patient 37, Trans DLBCL, DRB1-0103, group Significant response, ± SD.
Setting [20] is: Patient 48, T-cell rich DLBCL, DRB1-0301, group Significant response, ± SD.
Setting [21] is: Patient 61, De novo DLBCL, DRB1-0401, group No significant response, ± SD.

On to “VGNVCILRTQLLQQLYTSKA (listed as Homo sapiens) [PASD1(9)]”, for which the “γ-IFN response to peptides” value in assay [1] (setting [3]) was 30 ± 2; in assay [1] (setting [4]), 24 ± 2; in assay [1] (setting [5]) it was 24 ± 2; in assay [1] (setting [6]), 18 ± 2; in assay [1] (setting [7]), 18 ± 2; in assay [1] (setting [8]) it was 20 ± 2. Besides, the “γ-IFN response to peptides” value in assay [1] (setting [9]) is listed as 10 ± 2; in assay [1] (setting [10]) it was 20 ± 4; in assay [1] (setting [11]), 8 ± 2; in assay [1] (setting [12]) it was 8 ± 2; in assay [1] (setting [13]), 24 ± 2; in assay [1] (setting [14]) it was 18 ± 2. The “γ-IFN response to peptides” value in assay [1] (setting [15]) turned out to be 8 ± 2; in assay [1] (setting [16]), 16 ± 2; in assay [1] (setting [17]), 26 ± 4; in assay [1] (setting [18]) it was 22 ± 4; in assay [1] (setting [19]) it was 28 ± 2; in assay [1] (setting [20]), 26 ± 2. The “γ-IFN response to peptides” value in assay [1] (setting [21]) came to 16 ± 2; in assay [2] (Healthy donor HD 1, DRB1-0102), 14 ± 2; in assay [2] (Healthy donor HD 2, DRB1-0401), 1 ± 1; in assay [2] (Healthy donor HD 3, DRB1-0401), 8 ± 2; in assay [2] (Healthy donor HD 4, DRB1-0301), 19 ± 2; in assay [2] (Healthy donor HD 5, DRB1-0301), 18 ± 2.

With “AENISSLLGHLPAEIVGKKL (listed as Homo sapiens) [PASD1(8)]”, the “γ-IFN response to peptides” value in assay [1] (setting [3]) stood at 32 ± 3; in assay [1] (setting [4]) it was 36 ± 6; in assay [1] (setting [5]) it was 18 ± 2; in assay [1] (setting [6]), 28 ± 4; in assay [1] (setting [7]), 20 ± 4; in assay [1] (setting [8]), 12 ± 3. For the same substance, the “γ-IFN response to peptides” value in assay [1] (setting [9]) was 36 ± 4; in assay [1] (setting [10]), 24 ± 4; in assay [1] (setting [11]), 10 ± 1; in assay [1] (setting [12]), 14 ± 2; in assay [1] (setting [13]), 20 ± 2; in assay [1] (setting [14]) it was 24 ± 2. In addition, the “γ-IFN response to peptides” value is given as 18 ± 2 in assay [1] (setting [15]); 14 ± 2 in assay [1] (setting [16]); 28 ± 4 in assay [1] (setting [17]); 16 ± 2 in assay [1] (setting [18]); 16 ± 2 in assay [1] (setting [19]); 40 ± 6 in assay [1] (setting [20]). The “γ-IFN response to peptides” value in assay [1] (setting [21]) stood at 12 ± 2; in assay [2] (Healthy donor HD 1, DRB1-0102) it was 18 ± 2; in assay [2] (Healthy donor HD 2, DRB1-0401) it was 10 ± 2; in assay [2] (Healthy donor HD 3, DRB1-0401) it was 6 ± 2; in assay [2] (Healthy donor HD 4, DRB1-0301) it was 10 ± 2; in assay [2] (Healthy donor HD 5, DRB1-0301), 10 ± 2.

For the substance “ILKEPVHGV [HIV peptide, reference compound]”, the “TH γ-IFN response to peptides at time of diagnosis and after one year” value in assay [1] (DLBCL patients (FIG. 5), short term culture, p<0.05) was “No significant response”. In assay [1] (HLA-A*0201-positive DLBCL patients (12 and 48, FIG. 2a), short term culture, p<0.05), the “γ-IFN response to CTL peptides at time of diagnosis and after one year” value is listed as “No significant response”.

Turning to “DESFRKYTAFTIPSMNNETP (Human immunodeficiency virus type 1) [HIV-1, control irrelevant peptide from HIV-1 reverse transcriptase used with the TH peptides, reference compound]”, the “γ-IFN response to peptides” value is 2 ± 1 in assay [1] (setting [3]); 16 ± 2 in assay [1] (setting [4]); 8 ± 2 in assay [1] (setting [5]); 14 ± 2 in assay [1] (setting [6]); 12 ± 4 in assay [1] (setting [7]); 4 ± 2 in assay [1] (setting [8]). In addition, the “γ-IFN response to peptides” value in assay [1] (setting [9]) amounted to 16 ± 4; in assay [1] (setting [10]), 12 ± 2; in assay [1] (setting [11]), 14 ± 4; in assay [1] (setting [12]) it was 10 ± 2; in assay [1] (setting [13]), 14 ± 2; in assay [1] (setting [14]) it was 12 ± 2. Besides, the “γ-IFN response to peptides” value in assay [1] (setting [15]) is reported as 10 ± 2; in assay [1] (setting [16]) it was 10 ± 2; in assay [1] (setting [17]), 8 ± 2; in assay [1] (setting [18]), 6 ± 2; in assay [1] (setting [19]), 16 ± 2; in assay [1] (setting [20]) it was 12 ± 2. The “γ-IFN response to peptides” value in assay [1] (setting [21]) worked out at 12 ± 2; in assay [2] (Healthy donor HD 1, DRB1-0102), 8 ± 2; in assay [2] (Healthy donor HD 2, DRB1-0401), 6 ± 2; in assay [2] (Healthy donor HD 3, DRB1-0401), 1 ± 1; in assay [2] (Healthy donor HD 4, DRB1-0301), 10 ± 2; in assay [2] (Healthy donor HD 5, DRB1-0301), 8 ± 2.

As for “phytohaemagglutinin [PHA, reference compound]”, the “γ-IFN response to peptides” value is 48 +/− 2 in assay [1] (PBMCs from a DLBCL patient stimulated in culture with PASD1(6) or PASD1(7) peptides, +/− SD); 98 ± 15 in assay [1] (setting [3]); 106 ± 18 in assay [1] (setting [4]); 62 ± 8 in assay [1] (setting [5]); 98 ± 14 in assay [1] (setting [6]); 48 ± 4 in assay [1] (setting [7]). For the same substance, the “γ-IFN response to peptides” value in assay [1] (setting [8]) is 118 ± 18; in assay [1] (setting [9]), 78 ± 8; in assay [1] (setting [10]) it was 72 ± 10; in assay [1] (setting [11]) it was 58 ± 6; in assay [1] (setting [12]), 54 ± 12; in assay [1] (setting [13]), 62 ± 12. Moreover, the “γ-IFN response to peptides” value was 58 ± 14 in assay [1] (setting [14]); 52 ± 10 in assay [1] (setting [15]); 102 ± 10 in assay [1] (setting [16]); 86 ± 14 in assay [1] (setting [17]); 45 ± 8 in assay [1] (setting [18]); 126 ± 22 in assay [1] (setting [19]). Besides, the “γ-IFN response to peptides” value came out at 84 ± 10 in assay [1] (setting [20]); 58 ± 10 in assay [1] (setting [21]); 86 ± 14 in assay [2] (Healthy donor HD 1, DRB1-0102); 66 ± 10 in assay [2] (Healthy donor HD 2, DRB1-0401); 46 ± 6 in assay [2] (Healthy donor HD 3, DRB1-0401); 74 ± 16 in assay [2] (Healthy donor HD 4, DRB1-0301). Besides, the “γ-IFN response to peptides” value in assay [2] (Healthy donor HD 5, DRB1-0301) is 63 ± 10.

As for “NHPVRFLQAQPIVPVQRAAE (listed as Homo sapiens) [PASD1(10)]”, the “γ-IFN response to peptides” value in assay [1] (setting [3]) is 40 ± 2; in assay [1] (setting [4]) it was 40 ± 4; in assay [1] (setting [5]), 32 ± 2; in assay [1] (setting [6]), 32 ± 4; in assay [1] (setting [7]), 18 ± 4; in assay [1] (setting [8]) it was 14 ± 2. Besides, the “γ-IFN response to peptides” value is recorded as 32 ± 2 in assay [1] (setting [9]); 32 ± 4 in assay [1] (setting [10]); 18 ± 4 in assay [1] (setting [11]); 10 ± 4 in assay [1] (setting [12]); 22 ± 2 in assay [1] (setting [13]); 12 ± 2 in assay [1] (setting [14]). Further, the “γ-IFN response to peptides” value was determined as 16 ± 2 in assay [1] (setting [15]); 18 ± 2 in assay [1] (setting [16]); 16 ± 4 in assay [1] (setting [17]); 10 ± 2 in assay [1] (setting [18]); 34 ± 2 in assay [1] (setting [19]); 38 ± 2 in assay [1] (setting [20]). The “γ-IFN response to peptides” value in assay [1] (setting [21]) is on record as 6 ± 2; in assay [2] (Healthy donor HD 1, DRB1-0102), 10 ± 2; in assay [2] (Healthy donor HD 2, DRB1-0401), 4 ± 2; in assay [2] (Healthy donor HD 3, DRB1-0401) it was 2 ± 1; in assay [2] (Healthy donor HD 4, DRB1-0301), 18 ± 2; in assay [2] (Healthy donor HD 5, DRB1-0301), 16 ± 2.

For the origin of these results see patent publication US8501908B2, “Immunogenic peptides” (priority 2008, dated 2013).
